Measurements from patent publication US7563805B2, “Tri-, tetra-substituted-3-aminopyrrolidine derivative” (Daiichi Pharmaceutical Co., Ltd., priority 2005, dated 2009).
In brackets after ≈: the same amount, converted by molar mass.

How the values were obtained:
S. marscecens, 10100 = assay: antibacterial activity (MIC), standard method of Japanese Society of Chemotherapy
[1] = system: Mycobacterium tuberculosis (sensitive bacteria); assay: anti-Mycobacterium tuberculosis (sensitive bacteria) activity, MIC; assay type: cell-based
[2] = system: S. pneumoniae, J24 (penicillin-intermediate resistant bacteria); assay: antibacterial activity (MIC), standard method of Japanese Society of Chemotherapy
[3] = system: penicillin resistant Streptococcus pneumoniae (PRSP) strain 033806; assay: mouse local lung infection model by PRSP
[4] = system: bone marrow cells (polychromatic erythrocytes); assay: mouse bone marrow micronucleus test; assay type: in vivo, Slc:ddY male mice; conditions: single i.v. dose, 24 h, Example 2: 50, 100 mg/kg, Example 3: 100, 150 mg/kg, Example 9: 50, 100, 150 mg/kg
Procedure: The control was 0.1 mol/l NaOH/physiological saline solvent, and the positive control was cyclophosphamide (cyclophoshamide, CP) dissolved and diluted in physiological saline. All samples were sterilized by filtering through Milex GS filter (0.22 μm). Each solution was intravenously administered at a dose of 10 mL/kg in single dose at an administration rate of 0.2 mL/min.
Bone marrow cells were collected from thigh bone at 24 hours after the administration, and smear preparation was prepared. After staining with acridine orange, 1000 polychromatic erythrocytes per animal were observed under fluorescence microscope to count frequency of micrronucleated polychromatic erythrocyte and ratio of the orthochromatic erythrocytes to the polychromatic erythrocyte in 1000 erythrocytes.

S. aureus, 209P = assay: antibacterial activity (MIC), standard method of Japanese Society of Chemotherapy; conditions: Staphylococcus aureus
in vivo [5] = conditions: male, Crj:CD IGS, rat, po, 5 mg/kg
Procedure: The Comparative compound was also evaluated by the same procedure.
The test substance was orally administered to fasted rats (7 week old male Crj:CD IGS rats purchased from Charles River Laboratories Japan, Inc.) at a dose of 5 mg/kg.
Animals of absorption test group (3 animals per group) were sacrificed by bleeding under etherization at 0.25, 0.5, 1, 2, 4, and 8 hours after the drug administration, and blood, lever, kidney, and lung were collected. The blood was centrifuged (3000 rpm×15 minutes, 4° C.) after coagulation to collect serum. Tissue was homogenized after adding 3 to 5 mL of 0.1 mol/l phosphate buffer (pH 7.0), and the supernatant was collected from the homogenate (3000 rpm×15 minutes, 4° C.).
Animals of excretion test group (3 animals per group) were placed in a metabolic cage, and the urine of 0 to 4 hours and 4 to 24 hours after the administration was collected in a water-cooled container. Simultaneously with the collection of the urine, the cage was also washed with about 15 mL of 0.1 mol/l phosphate buffer (pH 7.0) to collect the urine attached to the cage. For evaluation of conjugates such as glucuronide, the collected sample was also aliquoted and hydrolyzed with an equal amount of 1 mol/l aqueous solution of sodium hydroxide, and the hydrolysate was neutralized with 0.5 mol/l hydrochloric acid and measured for its concentration. The concentration was measured by LC-MS/MS method.
Pharmacokinetic parameters of the each drug in rat were calculated by from the time course of the average concentration by using pharmacokinetic analysis software PSAG-CP (AS Medica Inc.) in a manner not dependent on the model animal.

P. aeruginosa, 32121 = assay: antibacterial activity (MIC), standard method of Japanese Society of Chemotherapy; conditions: Pseudomonas aeruginosa
E. faecalis, ATCC 19433 = assay: as above; conditions: E. faecalis
P. vulgaris, 08601 = assay: as above; conditions: Proteus vulgaris, 08601, P. vulgaris
[6] = female, cynomolgus monkey, in vivo
[7] = potential convulsant activity upon intracisternal administration, with and without 4-biphenyl acetic acid (BPAA); conditions: 5 μg/5 μL/mouse i. cist
Procedure: The potential convulsant activity upon intracisternal administration to mouse was also evaluated for the concomitant and administration with 4-biphenyl acetic acid (BPAA: an active metabolite of fenbufen) and in the absence of such concomitant administration. The evaluation was conducted by using 4 week old male Slc:ddY mice (6 animals per group) and intracisternally administering the test substance at a dose of 5 μg/5 μL/mouse (solvent, 0.5% lactic acid). Monitoring of the animals for the convulsion and death was started immediately after the administration and continued to 30 minutes after the administration. When used concomitantly with the BPAA, BPAA was suspended in 5% CMC, and 400 mg/kg was orally administered at a solution amount of 10 mL/kg, and the test substance was intracisternally administered 30 minutes after the BPAA.

[8] = system: Mycobacterium tuberculosis (quinolone sensitive); assay: anti-Mycobacterium tuberculosis (quinolone sensitive) activity, MIC; assay type: cell-based
in vivo [9] = conditions: female, cynomolgus monkey, po, 5 mg/kg
E. coli strain E77156 = assay: rat simple cystitis model (E. coli); assay type: in vivo
P. aeruginosa, 32104 = assay: antibacterial activity (MIC), standard method of Japanese Society of Chemotherapy; conditions: Pseudomonas aeruginosa
hERG K+ channel = hERG K+ channel (Homo sapiens, UniProt Q12809); assay: hERG-K^+ channel blocking effect
hERG K+ channel, sequence (Q12809 whole entry): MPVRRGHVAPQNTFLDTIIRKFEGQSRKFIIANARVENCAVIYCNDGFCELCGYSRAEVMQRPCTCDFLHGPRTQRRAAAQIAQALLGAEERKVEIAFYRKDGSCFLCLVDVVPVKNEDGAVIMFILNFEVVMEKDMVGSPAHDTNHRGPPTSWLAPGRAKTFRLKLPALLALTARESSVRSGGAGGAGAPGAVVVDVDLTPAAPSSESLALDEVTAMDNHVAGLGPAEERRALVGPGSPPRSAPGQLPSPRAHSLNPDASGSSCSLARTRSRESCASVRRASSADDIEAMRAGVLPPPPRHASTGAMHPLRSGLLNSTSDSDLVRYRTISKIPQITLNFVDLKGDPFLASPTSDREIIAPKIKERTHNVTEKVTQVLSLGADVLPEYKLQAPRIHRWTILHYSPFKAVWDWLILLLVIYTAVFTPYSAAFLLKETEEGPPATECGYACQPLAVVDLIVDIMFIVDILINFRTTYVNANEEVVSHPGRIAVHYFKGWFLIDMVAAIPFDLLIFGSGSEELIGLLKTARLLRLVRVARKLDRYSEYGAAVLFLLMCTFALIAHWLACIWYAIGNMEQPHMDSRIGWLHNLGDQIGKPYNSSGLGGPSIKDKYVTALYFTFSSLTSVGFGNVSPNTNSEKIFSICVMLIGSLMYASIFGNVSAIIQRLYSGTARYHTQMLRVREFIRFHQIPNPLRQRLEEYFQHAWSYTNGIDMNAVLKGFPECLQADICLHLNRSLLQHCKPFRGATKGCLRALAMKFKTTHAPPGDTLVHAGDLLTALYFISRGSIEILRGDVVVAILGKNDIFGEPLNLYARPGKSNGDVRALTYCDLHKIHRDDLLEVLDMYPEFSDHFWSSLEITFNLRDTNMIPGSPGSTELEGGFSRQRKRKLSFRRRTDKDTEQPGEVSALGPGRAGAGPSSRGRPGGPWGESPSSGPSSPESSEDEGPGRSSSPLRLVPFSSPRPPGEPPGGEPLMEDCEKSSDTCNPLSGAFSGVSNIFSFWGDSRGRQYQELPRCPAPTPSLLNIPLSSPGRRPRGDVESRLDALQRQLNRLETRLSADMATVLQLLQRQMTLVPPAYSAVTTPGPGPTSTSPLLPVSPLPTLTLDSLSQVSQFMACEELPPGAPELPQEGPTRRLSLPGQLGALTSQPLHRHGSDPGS

[10] = system: S. aureus, 87037 (LVFX-resistant MRSA); assay: antibacterial activity (MIC), standard method of Japanese Society of Chemotherapy; conditions: Staphylococcus aureus, MRSA, S. aureus, 87037 (LVFX-resistant MRSA)
[11] = (with BPAA 400 mg/kg oral, 30 minutes before)

Work on `COc1c(N2CC(C)(N)C3(CC3)C2)c(F)cc2c(=O)c(C(=O)O)cn([C@@H]3C[C@@H]3F)c12` (stereo partly drawn) [Example 9, 7-(7-Amino-7-methyl-5-azaspiro[2.4]heptan-5-yl)-6-fluoro-1-[(1R,2S)-2-fluorocyclopropyl]-8-methoxy-1,4-dihydro-4-oxoquinoline-3-carboxylic acid] yielded an MIC (S. marscecens, 10100) of 0.1 µg/mL (≈ 0.238 µM), an MIC ([1]; H37RV, strain H37Rv) of 0.03 µg/mL (≈ 0.0715 µM) and an MIC ([1]; strain Kurono) of 0.03 µg/mL (≈ 0.0715 µM). For the same compound, the MIC ([1]; strain Ravenel) was 0.03 µg/mL (≈ 0.0715 µM), the MIC ([1]; strain TB-s 2) was 0.06 µg/mL (≈ 0.143 µM) and the MIC ([1]; strain TB-s 3) was 0.06 µg/mL (≈ 0.143 µM). The MIC ([1]; strain TB-s 4) was 0.06 µg/mL (≈ 0.143 µM), the MIC ([1]; strain TB-s 5) was 0.06 µg/mL (≈ 0.143 µM) and the MIC ([1]; strain TB-s 6) was 0.06 µg/mL (≈ 0.143 µM). For the same compound, the MIC ([1]; strain TB-s 7) was 0.06 µg/mL (≈ 0.143 µM), the MIC ([1]; strain TB-s 8) was 0.03 µg/mL (≈ 0.0715 µM) and the MIC ([1]; strain TB-s 9) was 0.06 µg/mL (≈ 0.143 µM). For the same compound, the MIC ([1]; strain TB-s 10) was 0.03 µg/mL (≈ 0.0715 µM), the MIC ([1]; strain TB-s 11) was 0.06 µg/mL (≈ 0.143 µM) and the MIC ([1]; strain TB-s 12) was 0.125 µg/mL (≈ 0.298 µM). For the same compound, the MIC ([1]; strain TB-s 13) was 0.06 µg/mL (≈ 0.143 µM), the MIC ([1]; strain TB-s 14) was 0.06 µg/mL (≈ 0.143 µM) and the MIC ([1]; strain TB-s 15) was 0.06 µg/mL (≈ 0.143 µM). The MIC ([1]; strain TB-s 16) was 0.06 µg/mL (≈ 0.143 µM), the MIC ([1]; strain TB-s 17) was 0.06 µg/mL (≈ 0.143 µM) and the MIC ([1]; strain TB-s 18) was 0.06 µg/mL (≈ 0.143 µM). For the same compound, the MIC ([1]; strain TB-s 19) was 0.06 µg/mL (≈ 0.143 µM), the MIC ([1]; strain TB-s 20) was 0.06 µg/mL (≈ 0.143 µM) and the MIC ([1]; strain TB-s 21) was 0.06 µg/mL (≈ 0.143 µM). The MIC ([1]; strain TB-s 22) was 0.03 µg/mL (≈ 0.0715 µM), the MIC [2] was 0.1 µg/mL (≈ 0.238 µM) and the “therapeutic effect (number of bacteria in the lung) compared with comparative compound 1 at the same dose” value ([3]; CBA/JNCrlj mice, oral at 2 and 8 hours after infection, 25, 50, and 100 mg/kg/day (FIG. 2)) was “no significant difference”. For the same compound, the “in vivo antibacterial activity for the test bacteria relative to comparative compound 1” value ([3]; PRSP strain 033806) was “about ¼”, the “micronucleus induction rate versus control, evaluation result” value [4] was “negative” and the MIC (S. aureus, 209P) was 0.025 µg/mL (≈ 0.0596 µM). It also gave an AUC(0-t) (in vivo [5]) of 3080 ng·h/mL, a Cmax (in vivo [5]) of 1220 ng/mL and an MIC (P. aeruginosa, 32121) of 0.2 µg/mL (≈ 0.477 µM). The MIC (E. faecalis, ATCC 19433) was 0.2 µg/mL (≈ 0.477 µM), the MIC (P. vulgaris, 08601) was 0.025 µg/mL (≈ 0.0596 µM) and the “blood penetration, times higher than Comparative compound 1” value [6] was “about 2.5 times”. For the same compound, the “urine excretion rate, times higher than Comparative compound 1” value [6] was “more than 2 times”, the “Recovery (%) in urine in relation to the amount administered, Recovery (%) including conjugate” value ([6]; 5 mg/kg) was 59.5% and the “Number of animals which showed convulsion” value [7, 11] was 0/6 (0/6). For the same compound, the “number of dead animals” value [7, 11] was 0/6 (0/6), the “Number of animals which showed convulsion” value ([7]; (without BPAA)) was 0/6 (0/6) and the “number of dead animals” value ([7]; (without BPAA)) was 0/6 (0/6). For the same compound, the MIC ([8]; strain 1 (QR-3)) was 0.125 µg/mL (≈ 0.298 µM), the MIC ([8]; strain 2 (QR-6)) was 0.5 µg/mL (≈ 1.19 µM) and the MIC ([8]; strain 3 (QR-1)) was 0.25 µg/mL (≈ 0.596 µM). The MIC ([8]; strain 4 (QR-9)) was 0.25 µg/mL (≈ 0.596 µM), the MIC ([8]; strain MDR 1) was 0.125 µg/mL (≈ 0.298 µM) and the MIC ([8]; strain MDR 3) was 0.125 µg/mL (≈ 0.298 µM). For the same compound, the MIC ([8]; strain MDR 4) was 0.25 µg/mL (≈ 0.596 µM), the MIC ([8]; strain MDR 5) was 0.5 µg/mL (≈ 1.19 µM) and the MIC ([8]; strain MDR 7) was 0.125 µg/mL (≈ 0.298 µM). For the same compound, the MIC ([8]; strain MDR 9) was 0.125 µg/mL (≈ 0.298 µM), the MIC ([8]; strain MDR 12) was 0.125 µg/mL (≈ 0.298 µM) and the MIC ([8]; strain S 1) was 1 µg/mL (≈ 2.38 µM). The AUC(0-t) (in vivo [9]) was 16900 ng·h/mL, the Cmax (in vivo [9]) was 2180 ng/mL and the half-life (in vivo [9]) was 4.8 h. The “therapeutic effect compared with Comparative Compound 1” value (E. coli strain E77156; oral single dose 5 mg/kg/day) was “significantly stronger than the Comparative Compound 1”, the “number of bacteria in the bladder” value (E. coli strain E77156; oral single dose 20 or 80 mg/kg/day, next day of administration (FIG. 4)) was “significant decrease in the number of bacteria” and the MIC (P. aeruginosa, 32104) was 0.39 µg/mL (≈ 0.93 µM). For the same compound, the inhibition at 30 µM (hERG K+ channel) was 7.4 ± 4.5%, the inhibition at 100 µM (hERG K+ channel) was 10.2 ± 5.4% and the inhibition at 300 µM (hERG K+ channel) was 20.1 ± 7.4%. For the same compound, the MIC [10] was 0.78 µg/mL (≈ 1.86 µM).
